# Assay results from US9005939B2, “Protoilludene synthase” (priority 2010, dated 2015).
# What was measured:
# [1] = biological target: A. gallica protoilludene synthase (Armillaria gallica, UniProt P0DL13); format: biochemical
# [2] = biological target: T1, Pro1 (A. gallica protoilludene synthase) expressed in Escherichia coli (Armillaria gallica, UniProt P0DL13); test: Sesquiterpene synthase activity of crude soluble protein extract of E. coli expressing Pro1 (radio-TLC); format: biochemical; conditions: same Pro1 lysate incubated with diterpene synthase substrate
# T1 construct: A. gallica protoilludene synthase (clone Pro1); made in house; host or cells: E. coli BL21 (DE3) CodonPlus, vector pDEST14; crude soluble lysate
# Description: Escherichia coli protein extracts were prepared by resolving the cell pellet from cultivation in the described extraction puffer and cells were lysed under constant cooling by two rounds of Microfluidizer treatment.
# Part of the organic extract was then spotted onto silica-gel TLC plates and separated using 9:1 cyclohexane:ethyl acetate as the solvent, prior to analysis in a radio-TLC reader (Raytest, Straubenhardt). For the determination of KM values the reactions were stopped by quenching with 100 mM EDTA (final concentration) followed by extraction with n-pentane, purification by silica gel column chromatography and quantitation by liquid scintillation counting. All kinetic activity assays were performed in triplicate. Mass spectrometry analysis of solvent extracts was performed on a QP2010S quadrupole mass spectrometer (Shimadzu) equipped with an Rxi™-5 ms (0.25 mm ID, 30 m length) column (Restek) using the following temperature program: 80° C. for 20 min, followed by heating the column at an rate of 15° C./min to 300° C. with a final constant temperature of 300° C. for 4 min. Fragmentation was achieved by electric ionization at […].
# Where cDNA sequencing identified potential terpene synthase clones, the corresponding pENTRY vectors were used in LR recombination reactions involving the pDEST14 destination vector. […]
compound,measurement,setting,value
[Cl][Mn][Cl] [MnCl2],fall of protoilludene synthase activity,"[1]; 5 mM MgCl2 replaced with MnCl2, relative to highest activity with MgCl2",75%
CCO [ethanol],effect on enzyme activity,[1],dramatic reduction in activity
"CC(C)=CCC/C(C)=C/CC/C(C)=C/CC/C(C)=C/COP(=O)(O)OP(=O)(O)O [gernaylgeranyl diphosphate, geranylgeranyl diphosphate]",substrate converted into less polar product,[2],< 1%
